Settings: for log10 BCF / log10 biotransformation half-life (days): fish

CC(=O)OC(C)=O
boiling point: 140 °C
log10 vapour pressure (mmHg): 0.708
melting point: -73 °C

CCCCCCCCCCCCCC(=O)OC
boiling point: 295 °C
log10 vapour pressure (mmHg): -3.31
melting point: 19 °C

CCOC(=O)COC(=O)c1ccccc1C(=O)OCC
log10 Koc (L/kg): 2.54

O=[N+]([O-])N1CCCCC1
boiling point: 245 °C
melting point: -5.5 °C

Clc1ccc(-c2ccccc2)cc1Cl
log10 Henry constant (atm·m³/mol): -3.85

C=C(C)C(OC(C)=O)OC(C)=O
boiling point: 191 °C

CCCCCCCCCCCCCCCCCCNC(=O)N1CC1
ready biodegradability: not readily biodegradable

CS(=O)(=O)c1ccc(-c2cn3ccccc3n2)cc1
melting point: 243 °C

CCc1cccc(Cl)c1
boiling point: 184 °C
melting point: -55 °C

C1=Cc2cccc3cccc1c23
boiling point: 280 °C
log10 Henry constant (atm·m³/mol): -3.94
log10 Koc (L/kg): 3.75
log10 biodegradation half-life (days): 1.58
log10 vapour pressure (mmHg): -2.18
melting point: 92.5 °C
ready biodegradability: readily biodegradable
log10 BCF: 2.43
log10 biotransformation half-life (days): 0.52

CCOc1ccc(F)cc1
boiling point: 173 °C
melting point: -8.5 °C

CCCNC(=O)NS(=O)(=O)c1ccc(Cl)cc1
melting point: 128 °C

O=C1NC(=O)C2C3C(C(O)(c4ccccc4)c4ccccn4)=CC(C3=C(c3ccccc3)c3ccccn3)C12 (stereo not given)
melting point: 194 °C

CCC(C)C1(CC)C(=O)NC(=S)NC1=O (stereo not given)
melting point: 169 °C

O=C=Nc1ccccc1[N+](=O)[O-]
melting point: 41 °C

c1cc(-c2ccncc2)ccn1
boiling point: 305 °C
log10 vapour pressure (mmHg): -4.25
melting point: 111 °C

CC(C)NC(=O)N1CC(=O)N(c2cc(Cl)cc(Cl)c2)C1=O
log10 Henry constant (atm·m³/mol): -8.51
log10 Koc (L/kg): 2.85
log10 vapour pressure (mmHg): -8.43
melting point: 136 °C
log10 BCF: 2.53

CC12CCCC1C1CCC3CCCCC3(C)C1CC2 (stereo not given)
log10 biotransformation half-life (days): 1.67

CCCC(C)CCC(C)C (stereo not given)
boiling point: 158 °C
log10 biodegradation half-life (days): 0.301

ON=Cc1ccc(F)cc1
melting point: 83.5 °C

O=C(O)c1ccccc1[N+](=O)[O-]
melting point: 148 °C
ready biodegradability: readily biodegradable

Cc1ccccc1NC(=O)c1ccccc1
melting point: 146 °C

ClCC1C(CCl)C2(Cl)C(Cl)=C(Cl)C1(Cl)C2(Cl)Cl (stereo not given)
melting point: 105 °C

Clc1cc(Cl)c2oc3cc(Cl)c(Cl)cc3c2c1
log10 vapour pressure (mmHg): -7.71
melting point: 202 °C

CC(C)CO[N+](=O)[O-]
boiling point: 123 °C
log10 Henry constant (atm·m³/mol): -2.65
log10 vapour pressure (mmHg): 0.919

N#CC1CC2C=CC1C2 (stereo not given)
melting point: 13 °C

COC(=O)C(C)=O
boiling point: 136 °C

C#C[C@]1(O)CC[C@H]2[C@@H]3CCC4=CC(=O)CC[C@@H]4[C@H]3CC[C@@]21CC
melting point: 223 °C

CN(C)P(=O)(OP(=O)(N(C)C)N(C)C)N(C)C
log10 vapour pressure (mmHg): -3
melting point: 17 °C

CCCC(C)(C)CC
boiling point: 112 °C
log10 biodegradation half-life (days): 0.699
log10 vapour pressure (mmHg): 1.46
melting point: -126 °C

O=C(O)CS
log10 vapour pressure (mmHg): -1.06
melting point: -16.5 °C
ready biodegradability: readily biodegradable

CN1C(=O)CN=C(c2ccccc2F)c2cc([N+](=O)[O-])ccc21
melting point: 166 °C

CCCCCOC=O
boiling point: 130 °C
melting point: -73.5 °C

CC(C(=O)O)c1ccc2c(c1)[nH]c1ccc(Cl)cc12 (stereo not given)
melting point: 198 °C

O=C1CC(=O)NC(=S)N1
log10 vapour pressure (mmHg): -7.7

CC(C)C#N
boiling point: 104 °C
log10 Koa: 2.87
log10 vapour pressure (mmHg): 1.51
melting point: -71.5 °C
ready biodegradability: readily biodegradable

CN(C)c1ccc(C(=O)c2ccc(N(C)C)cc2)cc1
log10 Koc (L/kg): 2.21
melting point: 179 °C
ready biodegradability: not readily biodegradable
log10 BCF: 1.45
log10 biotransformation half-life (days): -0.77

c1ccc2oc(-c3ccc(-c4nc5ccccc5o4)s3)nc2c1
melting point: 219 °C

OCCCOCCCO
ready biodegradability: not readily biodegradable

CN(C)c1ccc(C(=N)c2ccc(N(C)C)cc2)cc1
boiling point: 330 °C
log10 Koc (L/kg): 3.31
melting point: 136 °C
ready biodegradability: not readily biodegradable

O=C(O)CCc1cc(I)c(Oc2ccc(O)c(I)c2)c(I)c1
melting point: 200 °C

CCCCC(=O)C(C)C
boiling point: 158 °C

NC(=S)c1c(Cl)cccc1Cl
log10 Koc (L/kg): 2.26
log10 vapour pressure (mmHg): -6
melting point: 152 °C

Clc1ccc(Oc2ccc(Cl)cc2)cc1
boiling point: 313 °C
log10 vapour pressure (mmHg): -3.3
melting point: 30 °C

Oc1ccc(Cl)cc1Cc1cc(Cl)ccc1O
log10 vapour pressure (mmHg): -10
melting point: 178 °C
ready biodegradability: not readily biodegradable
log10 BCF: 2.28
log10 biotransformation half-life (days): -0.51

Clc1cccc(-c2c(Cl)cc(Cl)cc2Cl)c1
log10 Henry constant (atm·m³/mol): -3.68

O=C(O)c1ccc2ccccc2c1
log10 vapour pressure (mmHg): -5.18
melting point: 186 °C
ready biodegradability: readily biodegradable

C=CCNS(=O)(=O)c1cc(S(N)(=O)=O)c(Cl)cc1/N=C/C=C(/C)O
melting point: 206 °C

CCCCNCC
boiling point: 108 °C
melting point: -78 °C
ready biodegradability: readily biodegradable

CCC(=O)Cc1ccccc1
boiling point: 230 °C

C1CN(SSN2CCOCC2)CCO1
melting point: 124 °C
ready biodegradability: not readily biodegradable

Oc1ccccc1C=NCCN=Cc1ccccc1O
melting point: 128 °C

Nc1ccc(Cc2ccc(N)cc2)cc1
boiling point: 398 °C
log10 Koc (L/kg): 1.99
melting point: 92.5 °C
ready biodegradability: not readily biodegradable
log10 BCF: 1.18

CCNC(=O)OCC
boiling point: 176 °C

CCCC[N+](CCCC)(CCCC)CCCC.[I-]
melting point: 148 °C

C1C2CC3C4CC5CC(C14)C(C2)C3C5
log10 biodegradation half-life (days): 3.3

CSCC[C@H](NC(C)=O)C(=O)O
melting point: 106 °C

Oc1ccc(/C=C/c2cc(O)cc(O)c2)cc1
melting point: 254 °C

CC(C)CCC(=O)c1ccoc1
boiling point: 196 °C
